Source: ChEMBL document CHEMBL3988442, “University of Dundee, Small-Polar-MMV Screening Library” (2021)
Values joined by “and” are separate entries in the source; they are usually repeats but may differ in a detail not shown here. Equal values may be shown once.

target: Polyketide synthase Pks13 (Mycobacterium tuberculosis (strain ATCC 25618 / H37Rv), UniProt I6X8D2); test: Mycobacterium tuberculosis Polyketide synthase 13 Thioesterase (PKS13); format: functional
Sequence (I6X8D2 whole entry): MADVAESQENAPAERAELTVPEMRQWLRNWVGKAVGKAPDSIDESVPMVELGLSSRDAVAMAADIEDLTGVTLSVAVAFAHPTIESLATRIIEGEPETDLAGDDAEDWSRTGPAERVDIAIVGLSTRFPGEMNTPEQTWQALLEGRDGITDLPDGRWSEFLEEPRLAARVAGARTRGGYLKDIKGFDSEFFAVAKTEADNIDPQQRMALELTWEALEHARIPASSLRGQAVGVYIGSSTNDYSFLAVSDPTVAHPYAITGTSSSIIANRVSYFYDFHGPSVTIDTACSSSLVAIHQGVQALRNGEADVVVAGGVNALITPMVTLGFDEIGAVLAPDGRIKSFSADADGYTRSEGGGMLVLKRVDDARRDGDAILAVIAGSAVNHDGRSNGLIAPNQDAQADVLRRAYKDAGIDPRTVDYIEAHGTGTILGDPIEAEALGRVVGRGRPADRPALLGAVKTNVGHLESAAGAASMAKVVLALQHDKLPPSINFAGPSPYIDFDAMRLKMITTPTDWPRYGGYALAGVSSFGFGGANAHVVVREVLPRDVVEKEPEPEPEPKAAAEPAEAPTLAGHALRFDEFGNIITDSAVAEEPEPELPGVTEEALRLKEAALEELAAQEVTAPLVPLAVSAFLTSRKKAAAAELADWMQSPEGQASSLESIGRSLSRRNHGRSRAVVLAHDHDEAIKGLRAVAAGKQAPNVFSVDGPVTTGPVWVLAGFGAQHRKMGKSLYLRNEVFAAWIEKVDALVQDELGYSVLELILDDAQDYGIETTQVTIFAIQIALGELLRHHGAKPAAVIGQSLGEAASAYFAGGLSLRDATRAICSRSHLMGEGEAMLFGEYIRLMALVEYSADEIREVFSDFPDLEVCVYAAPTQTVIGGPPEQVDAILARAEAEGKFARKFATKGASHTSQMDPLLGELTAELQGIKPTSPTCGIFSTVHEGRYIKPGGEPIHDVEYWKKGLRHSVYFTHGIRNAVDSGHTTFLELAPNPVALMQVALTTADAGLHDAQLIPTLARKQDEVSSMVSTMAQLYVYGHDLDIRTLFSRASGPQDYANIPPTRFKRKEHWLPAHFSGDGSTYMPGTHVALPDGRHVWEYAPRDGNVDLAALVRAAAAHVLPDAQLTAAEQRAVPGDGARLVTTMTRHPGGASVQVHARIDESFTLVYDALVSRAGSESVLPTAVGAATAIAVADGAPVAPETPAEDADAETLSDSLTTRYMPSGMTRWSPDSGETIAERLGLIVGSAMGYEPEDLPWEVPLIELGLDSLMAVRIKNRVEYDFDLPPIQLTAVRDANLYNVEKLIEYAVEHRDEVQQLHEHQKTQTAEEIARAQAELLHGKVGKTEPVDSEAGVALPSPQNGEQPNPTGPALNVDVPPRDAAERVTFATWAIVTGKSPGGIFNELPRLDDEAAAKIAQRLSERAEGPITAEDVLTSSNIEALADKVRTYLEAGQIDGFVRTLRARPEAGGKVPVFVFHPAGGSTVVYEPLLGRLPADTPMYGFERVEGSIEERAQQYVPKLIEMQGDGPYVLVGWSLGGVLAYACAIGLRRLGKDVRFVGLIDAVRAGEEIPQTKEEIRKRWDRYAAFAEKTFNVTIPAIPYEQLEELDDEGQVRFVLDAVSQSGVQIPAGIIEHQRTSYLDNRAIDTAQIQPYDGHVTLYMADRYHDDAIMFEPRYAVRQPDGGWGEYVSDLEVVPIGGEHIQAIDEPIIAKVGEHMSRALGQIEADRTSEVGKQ

Compound | IC50
N#Cc1cc(C#N)c(SCC(=O)Nc2ccc(F)cc2)nc1N | 19.3 µM and 21.8 µM
Cn1cc(I)c(C(=O)NCCCn2cc(Br)cn2)n1 | 9.34 µM and 48.9 µM
CCCn1nnc(NCc2ccc(-c3ccc(Br)cc3)o2)n1 | 29.6 µM and > 100 µM
O=C1CNc2ncnc(N3CCN(Cc4ccccc4F)CC3)c2N1 | > 100 µM
O=C(O)CSc1nccc(-c2ccc3c(c2)OCO3)n1 | 16.4 µM and 18.6 µM
CCN(CC)C(=O)c1nnc2ccc(N3CCOCC3)cc2n1 | 6.1 µM and 15.9 µM
O=C1CC(c2ccc(F)c(F)c2)c2snc(C(=O)O)c2N1 (stereo not given) | > 100 µM
Cn1nc(C2CCCN2)c2c(C(=O)NCC(F)(F)F)cc(C3CC3)nc21 (stereo not given) | > 100 µM
Cc1c(C(=O)N2CCOCC2)nnn1-c1ccc2ncccc2c1 | > 100 µM
COc1ccc2nc(C3CC3)cc(C(=O)NCc3noc(C)n3)c2c1 | 21.6 µM and 21.4 µM
Cc1noc(CNc2ccc(CC(=O)N3CCSCC3)cc2)n1 | > 100 µM
Cc1ccc(C(=O)N2CCN(c3ncnc4nc(N)ccc34)CC2)o1 | > 100 µM
CN1CCc2ccc(NCc3cccs3)cc2C1=O | > 100 µM
COC(=O)c1ccc(NC2CCN(CC(F)(F)F)C2=O)cc1C (stereo not given) | > 100 µM
CCC(CNC(=O)COC)Oc1cccc(F)c1 (stereo not given) | > 100 µM
NC(=O)c1cc(C2CC2)nc2ccc(F)cc12 | > 100 µM
CCc1noc(Cn2c(=O)c3c(C(F)(F)F)cc(C)nc3n2C)n1 | 36 µM and 34.8 µM
CC(=O)N1CCC(NC(=O)c2cc(Cl)ccc2O)CC1 | > 100 µM and 80.2 µM
CC(NC(=O)NCC(C)(C)C(N)=O)c1nc(-c2ccccc2)cs1 (stereo not given) | > 100 µM
Cc1nc(CNC(=O)N2CCN(c3ccc(Cl)cn3)CC2)sc1C | 42.5 µM and 31.5 µM
CC(C)(C)OCCN1CCCC1c1nc(Cc2ccc(F)cc2)no1 (stereo not given) | > 100 µM
COC(=O)C(C)(C)NC(=O)c1cc2sc(N(C)C)nc2s1 | 21.9 µM and 10.8 µM
O=C(OCC1CCN(c2ccccc2)C1)c1cscn1 (stereo not given) | 29.9 µM and 4.14 µM
COCc1nc(C(=O)OCC2CCN(c3ccccc3)C2)cs1 (stereo not given) | > 100 µM and 16 µM
Cn1c(NCC(=O)N2CCCC2)c(C#N)c(=O)n(C)c1=O | > 100 µM

Compound | IC50
O=C(c1ccc(-n2cc(Br)cn2)cc1)N1CCN(c2cnccn2)CC1 | 2.63 µM and 3.37 µM
O=C(c1ccc(-n2ccnc2)cc1)N1CCN(c2cnccn2)CC1 | > 100 µM
O=C(NCc1ccc2c(c1)OCCO2)N1CCC(CO)CC1 | > 100 µM
COC(=O)c1sc2cccc(F)c2c1CNC(=O)C1CCOC1 (stereo not given) | > 100 µM
COc1cc2nc(NCc3cc(C)on3)nc(N)c2cc1OC | > 100 µM and 89.5 µM
CCCNC(=O)CCNc1cncc(-n2nc(C)cc2C)n1 | 28 µM and 22 µM
Cc1cc(C)n(-c2cncc(NCCNS(C)(=O)=O)n2)n1 | 20.9 µM and 8.18 µM
Cc1cc(C)n(-c2cncc(NCCC(=O)NC(C)C)n2)n1 | 24.1 µM and 15.2 µM
Cc1cnn(CC2CCCN2Cc2cc(=O)n3cc(C)ccc3n2)c1 (stereo not given) | > 100 µM and 95.9 µM
CCC(=O)NCC(=O)NCC(C)(C)c1cccc(Br)c1 | > 100 µM
Cc1cc(S(=O)(=O)Nc2cccc(I)c2)sc1C(=O)O | 6.1 µM and 15.1 µM
CCc1cccc(NS(=O)(=O)c2cc(C)c(C(=O)O)s2)c1 | 16.6 µM and 11.6 µM
Cc1cc(S(=O)(=O)Nc2cccc(OC(F)F)c2)sc1C(=O)O | 16.4 µM and 3.37 µM
Cc1ccc(CNC(=O)C2CCCCN2C(=O)OC(C)(C)C)cn1 (stereo not given) | > 100 µM
COc1ccc(NC(C)C(=O)N2CCCC2)cn1 (stereo not given) | > 100 µM
N#Cc1ccc(C(=O)O)nc1/C=C/c1cccc(Cl)c1 | > 100 µM
CN(Cc1ccc(N2CCCCC2)cc1)Cc1noc(C(C)(C)C)n1 | > 100 µM
Cn1cc(-c2ncc3c(c2C(=O)O)CCN(CC2CCOC2)C3)cn1 (stereo not given) | > 100 µM
CC1=N[C@@]2(CC[C@@H]3CN(S(C)(=O)=O)C[C@@H]32)C(=O)N1CC(C)C | > 100 µM
CN(C)CC(=O)N1Cc2nc(C(=O)NCc3ccccc3)oc2C1 | > 100 µM
O=C(Cc1cccc(F)c1)N1CCc2ncnc(NC3CC3)c2CC1 | > 100 µM
CCOC1CC2(CCN(C(=O)Cc3ccccn3)CC2)C1 | > 100 µM
Cn1ccnc1C(=O)N1C[C@@H]2CCN(c3cnccn3)C[C@@H]2C1 | > 100 µM
CN(C)c1ncnc2c1CCN(C(=O)c1cccnc1)CC2 | > 100 µM
CCOCCN1Cc2ncn(C)c2C(COCC2CCOCC2)C1 (stereo not given) | > 100 µM
